Results on seven compounds are retold here after patent US7932277B2, “Peptide inhibitors of hepatitis C virus replication” (InterMune, Inc., priority 2007, dated 2011).

Assay [1] concerns the target T1, NS3/NS4A-2 (full-length HCV NS3 protease complexed with NS4A-2) (Hepatitis C virus genotype 1a, UniProt P27958).
T1 construct: Recombinant E. coli or Baculovirus full-length NS3; host or cells: E. coli or baculovirus (insect cells)
Description: NS3 inhibition assay (NS3-NS4 protease assay). The class given is biochemical. To be noted: recombinant full-length NS3/NS4A-2, RETS1 substrate, kinetic fluorescence read; read-out: NS3-NS4 IC50. In short, it runs like this: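 Full-length NS3 (E. coli-expressed at 2 nM or baculovirus-expressed at 3 nM) precomplexed with excess NS4A-2 peptide and preincubated with compound (top concentration 50 μM) for 10 min at room temperature. RETS1 substrate added; fluorescence read kinetically for 30 min (ex 335/em 495 nm). IC50 converted to Ki using Km 2.03 μM (E. coli) or 1.74 μM (baculovirus).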

Assay [2] deals with HCV sub-genomic replicon (1377/NS3-3') in HuH-7 hepatoma cells (GS4.3). Description: Quantitation by ELISA of NPTII in the HCV sub-genomic replicon, GS4.3. The class given is cell-based, hepatitis C virus (HCV). To be noted: Hepatitis C virus, Huh-7; GS4.3 cells, 72 h incubation, NPTII ELISA; read-out: Replicon EC50. In short, it runs like this: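 GS4.3 cells (HuH-7 carrying HCV 1377/NS3-3′ replicon) treated 72 h at 37 °C with compound at 3-fold dilutions from 10 μM to 56 pM final, 1% DMSO, without G418. NPTII in lysates quantified by ELISA (450 nm). Signal expressed as percent of DMSO control; EC50 by 4-parameter fit.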
Background: In an ELISA, binding on a coated surface is turned into a signal by an enzyme label.

T1 sequence (P27958 1027-1657, one chain of several): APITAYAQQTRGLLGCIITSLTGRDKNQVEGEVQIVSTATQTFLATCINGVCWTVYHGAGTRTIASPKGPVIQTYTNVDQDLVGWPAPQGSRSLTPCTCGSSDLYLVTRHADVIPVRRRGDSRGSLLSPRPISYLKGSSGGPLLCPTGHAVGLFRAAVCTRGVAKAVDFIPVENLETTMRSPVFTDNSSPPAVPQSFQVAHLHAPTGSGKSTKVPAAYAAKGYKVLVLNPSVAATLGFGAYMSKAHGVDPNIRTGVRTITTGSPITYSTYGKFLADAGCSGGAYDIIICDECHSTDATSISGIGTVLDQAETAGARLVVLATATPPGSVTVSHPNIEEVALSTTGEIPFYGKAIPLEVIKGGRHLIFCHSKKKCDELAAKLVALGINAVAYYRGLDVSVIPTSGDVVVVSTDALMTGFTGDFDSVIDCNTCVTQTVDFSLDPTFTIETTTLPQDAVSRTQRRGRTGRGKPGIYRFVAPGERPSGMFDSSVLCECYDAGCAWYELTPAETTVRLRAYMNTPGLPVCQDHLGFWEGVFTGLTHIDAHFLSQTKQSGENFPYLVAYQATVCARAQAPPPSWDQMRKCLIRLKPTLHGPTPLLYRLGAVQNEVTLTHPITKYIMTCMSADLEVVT

For the compound `CC[C@@H]1C[C@]1(NC(=O)[C@@H]1C[C@@H](OC(=O)N2Cc3cccc(F)c3C2)CN1C(=O)[C@@H](Nc1cccc(C#N)c1)C(C)C)C(=O)NS(=O)(=O)C1CC1` [Compound 51, [(3R,5S)-1-((S)-2-(3-cyanophenylamino)-3-methylbutanoyl)-5-((1R,2R)-1-(cyclopropylsulfonylcarbamoyl)-2-ethylcyclopropylcarbamoyl)pyrrolidin-3-yl]4-fluoroisoindoline-2-carboxylate], in assay [1], the IC50 is under 100 nM. The EC50 in assay [2] lay within 100 to 1000 nM.

In the case of `CC[C@@H]1C[C@]1(NC(=O)[C@@H]1C[C@@H](OC(=O)N2Cc3cccc(F)c3C2)CN1C(=O)[C@@H](Nc1cccc(C(C)(C)C#N)c1)C(C)C)C(=O)NS(=O)(=O)C1CC1` [Compound 53, [(3R,5S)-1-((S)-2-(3-(2-cyanopropan-2-yl)phenylamino)-3-methylbutanoyl)-5-((1R,2R)-1-(cyclopropylsulfonylcarbamoyl)-2-ethylcyclopropylcarbamoyl)-pyrrolidin-3-yl]4-fluoroisoindoline-2-carboxylate], in assay [1], the IC50 was under 100 nM. Moreover, in assay [2], the EC50 is under 100 nM.

As for `C=C[C@@H]1C[C@]1(NC(=O)[C@@H]1C[C@@H](OC(=O)N2Cc3cccc(F)c3C2)CN1C(=O)[C@@H](Nc1ccc(F)cc1)C(C)C)C(=O)NS(=O)(=O)C1CC1` [Compound 33, (3R,5S)-5-((1R,2S)-1-(cyclopropylsulfonylcarbamoyl)-2-vinylcyclopropylcarbamoyl)-1-((S)-2-(4-fluorophenylamino)-3-methylbutanoyl)pyrrolidin-3-yl 4-fluoroisoindoline-2-carboxylate], the IC50 in assay [1] was under 100 nM. In assay [2], the EC50 fell in the range of 100 to 1000 nM.

Take `CC[C@@H]1C[C@]1(NC(=O)[C@@H]1C[C@@H](OC(=O)N2Cc3cccc(F)c3C2)CN1C(=O)[C@@H](Nc1cccc(C(F)(F)F)c1)C(C)C)C(=O)NS(=O)(=O)C1CC1` [Compound 47, [(3R,5S)-5-((1R,2R)-1-(cyclopropylsulfonylcarbamoyl)-2-ethylcyclopropylcarbamoyl)-1-((S)-3-methyl-2-(3-(trifluoromethyl)phenylamino)butanoyl)pyrrolidin-3-yl]4-fluoroisoindoline-2-carboxylate]: the IC50 in assay [1] is under 100 nM. Besides, the EC50 in assay [2] is under 100 nM.

Consider `CC(C)(C)[C@H](Nc1cccc(C(F)(F)F)c1)C(=O)N1C[C@H](OC(=O)N2Cc3cccc(Cl)c3C2)C[C@H]1C(=O)N[C@]1(C(=O)NS(=O)(=O)C2CC2)C[C@H]1C1CC1` [Compound 60, [(3R,5S)-5-((1R,2S)-1-(cyclopropylsulfonylcarbamoyl)-2-cyclopropylcyclopropylcarbamoyl)-1-((S)-3,3-dimethyl-2-(3-(trifluoromethyl)phenylamino)-butanoyl)pyrrolidin-3-yl]4-chloroisoindoline-2-carboxylate], for which, in assay [1], the IC50 is under 100 nM. Also, the EC50 in assay [2] is under 100 nM.

On to `CC[C@@H]1C[C@]1(NC(=O)[C@@H]1C[C@@H](OC(=O)N2Cc3cccc(Cl)c3C2)CN1C(=O)[C@@H](Nc1cccc(C(F)(F)F)c1)C(C)(C)C)C(=O)NOCC1CC1` [Compound 72], for which the IC50 in assay [1] is 100 to 1000 nM. In assay [2], the EC50 is 100 to 1000 nM.

Take `CC[C@@H]1C[C@]1(NC(=O)[C@@H]1C[C@@H](OC(=O)N2Cc3cccc(F)c3C2)CN1C(=O)[C@@H](Nc1cccc(C(C)(C)C)c1)C(C)C)C(=O)NS(=O)(=O)C1CC1` [Compound 45, [(3R,5S)-1-((S)-2-(3-tert-butylphenylamino)-3-methylbutanoyl)-5-((1R,2R)-1-(cyclopropylsulfonylcarbamoyl)-2-ethylcyclopropylcarbamoyl)pyrrolidin-3-yl]4-fluoroisoindoline-2-carboxylate]: the IC50 in assay [1] was under 100 nM. Further, the EC50 in assay [2] is under 100 nM.

A word on the IC50: it is the concentration at which inhibition is half-maximal. What is called EC50 is the concentration that produces a half-maximal response.
